Patent US20140228440A1, “1-AMINO-ALKYLCYCLOHEXANE DERIVATIVES FOR THE TREATMENT OF INFLAMMATORY SKIN DISEASES” (MERZ PHARMA GmbH & CO. KGaA, priority 2008, published 2014)

Experiments:
[1] = system: Staphylococcus epidermidis ATCC 12228; experiment: MIC and MBC by the agar dilution method; assay type: cell-based; settings: pH 5.5
Method: To assess the anti-microbial potency of Neramexane against acne relevant bacterias the minimal inhibitory concentration (MIC) and minimal bactericidal concentration (MBC) against the following bacterias is established: The MICs of the samples are determined using the agar dilution method based on DIN 58940. Petri dishes of 5.5 cm diameter are poured with 2.5 ml of freshly prepared Mueller-Hinton agar (Merck company, Cat-No 1.05437) or Wilkins-Chalgren-Agar (Oxoid company, Cat-No CM643), maintained in liquid form at 50° C., to which the sample dilutions at various concentrations have been added at 50.0 vol.-%. To prepare the starting sample dilutions, a 12.5%, 3.12% suspension of the respective sample solution is prepared with Aqua purificata. From these stock-solutions, further dilutions are prepared with Aqua purificata. All test compounds are adjusted to pH 5.5. For test product no. 1, separate dilutions adjusted to pH 6.0 and pH 7.4 are also prepared. For inoculation, 1 μl of the respective germ suspension is placed on the centre of each agar plate. After drying, inoculated plates are incubated at 36.0±2.0° C. The basis for the length of incubation period is the respective growth control cultivated in parallel. The test microbe suspension is prepared by inoculating a few individual colonies of the respective bacteria into sterile saline solution until a turbidity corresponding to the McFarland standard 1.0 (approximately 10^8 cfu/ml) is reached. After that, the test microbe suspensions are further diluted 1:10 with saline solution and the microbial counts (see Table 21) are determined by the surface spread method using a spiral plater. The agar plates are incubated under the conditions given in Table 22 and subsequently evaluated. The MIC-values as given represent the lowest concentration of the active substance at which there is no macroscopically visible growth. Minimal, barely visible growth or few small individual colonies are evaluated as inhibition. [table] All negative tests of the determination of the minimal bactericial concentration are the basis of verification of remaining germs, the inoculated agar segments are cut and put in Mueller-Hinton-Bouillon (germ 1) or Wilkins-Chalgren-Bouillon (germs 2-4). After an adequate incubation period at 36.0±2.0° C. (as judged from a control without test compound), the tests are checked manually on microbial growth (=turbidity) and the minimal bactericidal concentration is determined. MBC indicates the concentration without marked turbidity. Grown germs are checked for identity to rule out unspecific contaminations. The following results are summarized and tabulated: • a) Results of the Minimal Inhibitory Concentration (MIC)* • b) Results of the Minimal Bactericidal Concentration (MBC) *The MIC is the concentration without macroscopical growth. Scarcely apparent, minimum growth or few single colonies are not considered. The controls must have a respectively good developed growth. There must be no growth on the agar plates for the sterile control. The growth of bacteria is indicated for the duplicate plates by a +(i.e., growth) or a −(i.e., no growth), +− indicates weak growth on both plates or growth on one plate and no growth on the other plate. All bacteria show appropriate growth on the respective control plate not containing any test compound. No influence of the used diluent (Aqua purifacata) was observed. No contamination is observed on the control-plates.

[2] = system: Propionibacterium acnes (ATCC 11828); experiment: Quantitative suspension assay (bactericidal activity); assay type: cell-based; settings: pH 5.5
Method: 1.0 ml of the bacterial test suspension (microbial count: 1.5−5.0×10^8 cfu/ml) and 1.0 ml distilled water is added to 8.0 ml of the product test solution. The stopwatch is started. At the end of the exposure time, 0.1 ml of the test mixture is added to 50 ml rinsing liquid (=test neutralization mixture, TNM, 10°). Two dilutions of the TNM are prepared by pipetting […] of TNM to 9.0 ml of tryptone-NaCl (represents a dilution 10^−2 of TNM before filtration) resp. 50 μl of TNM to 9.0 ml of tryptone-NaCl (represents a dilution 10^−3 of TNM before filtration). The TNM (in duplicate) and each of the dilutions are transferred to a membrane filter device fitted with a membrane filter (0.45 μm) and filtered immediately. Subsequently, the filter is washed with 150 ml distilled water. The membranes are transferred to agar plates. After incubation under appropriate conditions, colonies are counted and reported.
Neramexane-mesylate is tested at 4 different concentrations (w/w 0.1%, 0.5%, 2.0%, 5.0%) to assess its bactericidal activity against Propionibacterium acnes (ATCC 11828). In addition to the effect of the concentration of Neramexane, the relevance of the contact time with the bacterias is assessed at 4 different incubation times (5 min, 30 min, 6 h, 24 h).
After the desired incubation time, the complete elimination of the test compound from the assay is ensured by membrane filtration. Bacterial suspensions with a microbial count ranging from 1.5−5.0×10^8 cfu/ml are used. All assays are performed at the skin relevant pH of 5.5.
The read out is reduction of the bacterial number in the assay, expressed as log-reduction. This reduction of the bacterial count is correlated to the ability of a compound to kill the bacteria, thus, corresponding to its MBC value. A >5-fold log reduction is required for a surface-disinfection compound and a >3-fold log reduction for a hand-disinfection compound.

Structure (SMILES): CC1(C)CC(C)(C)CC(C)(N)C1.CS(=O)(=O)O [Neramexane mesylate]
- growth of bacteria on duplicate plates (MIC determination) ([1]; final concentration 0.01 %): + +
- growth of bacteria on duplicate plates (MIC determination) ([1]; final concentration 0.04 %): + +
- growth of bacteria on duplicate plates (MIC determination) ([1]; final concentration 0.08 %): + +
- growth of bacteria (MBC determination) ([1]; final concentration 0.16 %): + +
- growth of bacteria on duplicate plates (MIC determination) ([1]; final concentration 0.16 %): − −
- growth of bacteria (MBC determination) ([1]; final concentration 0.31 %): + +
- growth of bacteria on duplicate plates (MIC determination) ([1]; final concentration 0.31 %): − −
- growth of bacteria (MBC determination) ([1]; final concentration 0.63 %): + +
- growth of bacteria on duplicate plates (MIC determination) ([1]; final concentration 0.63 %): − −
- growth of bacteria (MBC determination) ([1]; final concentration 1.56 %): − −
- growth of bacteria on duplicate plates (MIC determination) ([1]; final concentration 1.56 %): − −
- growth of bacteria (MBC determination) ([1]; final concentration 2.50 %): − −
- growth of bacteria on duplicate plates (MIC determination) ([1]; final concentration 2.50 %): − −
- growth of bacteria (MBC determination) ([1]; final concentration 3.13 %): − −
- growth of bacteria on duplicate plates (MIC determination) ([1]; final concentration 3.13 %): − −
- growth of bacteria (MBC determination) ([1]; final concentration 6.25 %): − −
- growth of bacteria on duplicate plates (MIC determination) ([1]; final concentration 6.25 %): − −
- MBC [1]: 1.56%
- MIC [1]: 0.16%
- log-reduction ([2]; 0.1%, contact time 5 min): <1.41
- log-reduction ([2]; 0.1%, contact time 30 min): <1.41
- log-reduction ([2]; 0.1%, contact time 6 h): <1.41
- log-reduction ([2]; 0.1%, contact time 24 h): <1.41
- log-reduction ([2]; 0.5%, contact time 5 min): <1.41
- log-reduction ([2]; 0.5%, contact time 30 min): <1.41
- log-reduction ([2]; 0.5%, contact time 6 h): 2.6
- log-reduction ([2]; 2.0%, contact time 5 min): <1.41
- log-reduction ([2]; 2.0%, contact time 6 h): >5.48
- log-reduction ([2]; 2.0%, contact time 24 h): >5.48
- log-reduction ([2]; 5.0%, contact time 5 min): 4.33
- log-reduction ([2]; 5.0%, contact time 30 min): >5.48
- log-reduction ([2]; 5.0%, contact time 6 h): >5.48
- log-reduction ([2]; 5.0%, contact time 24 h): >5.48
